Test results published in patent US9682931B2, “Aryloyl(oxy or amino)pentafluorosulfanylbenzene compound, pharmaceutically acceptable salt thereof, and prodrugs thereof” (UBE INDUSTRIES, LTD., priority 2013, dated 2017).
Converted amounts (≈) assume the structure as drawn.

Legend:
[1] = test system: lumen formed in angiogenesis kit with VEGF-A; experiment: Angiogenesis inhibitory action (angiogenesis kit, VEGF-A, CD31 staining, area and length of lumen); assay type: cell-based; conditions: 5 μg/mL, VEGF-A 10 ng/mL, 11 days
Source text: Angiogenesis Inhibitory Action
The angiogenesis inhibitory action of a test substance (Compound 3) was examined by use of measuring reagents and analysis software described below.
1. Measuring Reagents and Analysis Software
Angiogenesis kit (Cat. No. KZ-1000), manufactured by KURABO INDUSTRIES LTD.
Angiogenic agent VEGF-A (Cat. No. KZ-1350), manufactured by KURABO INDUSTRIES LTD.
Lumen staining kit (for staining CD31, Cat. No. ZHA-1225), manufactured by KURABO INDUSTRIES LTD.
Image analysis software: Angiogenesis Image Analyzer V2.0, manufactured by KURABO INDUSTRIES LTD.
Herein, as a culture medium, angiogenesis specific medium-2 (hereinafter referred to as the medium) provided in the above angiogenesis kit.
Positive control: Medium containing VEGF-A (10 ng/mL)
Negative control: Medium containing VEGF-A (10 ng/mL) and Suramin (50 μmol/L)
3. Preparation of Samples
A test substance was weighed at the starting day of a test. The medium was added so as to be 500 μg/mL. Sonication was performed while heating at 37° C. for 60 minutes to be dissolved. Then, filtration was performed by a 0.22 μm filter. The 500 μg/mL-solution was serially diluted with the medium in a common ratio of 10. […]
The pictures were subjected to image analysis by use of image analysis software, Angiogenesis Image Analyzer V 2.0, and the area and length of the lumen formed were measured.

[2] = test system: HL60 (myelocytic leukemia); experiment: Evaluation of anticancer action, cell proliferation inhibition (WST-8), HL60; assay type: cell-based; conditions: Homo sapiens, HL-60, HL60, about 96 hours
Source text: The cell proliferation inhibitory effects of a test substance (Compound 3) on various types of cancer cells were examined.
1. Measuring Reagent and Analysis Software
WST-8 Kit (Cat. No. 260-96165 or 260-96162; manufactured by Kishida Chemical Co., Ltd.) for counting cell number
Software for graph making and measurement of GI50 value: XLfit 5.2 (ID Business Solutions Ltd.)
2. Cells and Culture Conditions
Five types of cells and medium (the following Table) were used. The cells were obtained from the Research Resource Bank of the Human Sciences Foundation.
On the day when a sample was to be added, the sample was weighed and a medium for each type of cells was added so as to be 500 μg/mL. Sonication was performed while warming at 37° C. for 60 minutes to be dissolved. Then, filtration was performed by a 0.22 m-filter. The 500 μg/mL-solution was diluted with the medium for each type of cells to prepare 200 μg/mL, 60 μg/mL, 20 μg/mL, 6 μg/mL, 2 μg/mL, 0.6 μg/mL and 0.2 μg/mL solutions, which were specified as two-fold concentration test solutions (the final concentrations of the test substance were 250 µg/mL, 100 μg/mL, 30 μg/mL, 10 μg/mL, 3 μg/mL, 1 μg/mL, 0.3 μg/mL, […], respectively). […]
(8) Absorbance values at 450 nm and 650 nm were measured to calculate O.D. 450 and O.D. 650. […]
ODdrug-exposed wells: absorbance of a well containing a sample […]

## O=C(Nc1ccc(S(F)(F)(F)(F)F)cc1)c1cc(O)c(O)c(O)c1 [Compound 3, 4-(3,4,5-trihydroxybenzoylamino)pentafluorosulfanylbenzene]
[1]
  angiogenesis inhibitory effect (area and length of lumen): angiogenesis inhibitory effect was confirmed
[2]
  GI50: 1.7 µg/mL (≈ 4.58 µM)
